# Measurements taken from patent publication US10882838B2, “Cannabinergic compounds and uses thereof” (Northeastern University, priority 2012, dated 2021).
# Where two headings read alike, the source gives them in different places.
# What was measured:
# [1] = Stability in plasma (half-life); type: in vitro ADME, rat or monkey; details: method: 200 μM in plasma, 37°; species of plasma not given
# Protocol: The designed compounds carry a side chain that is susceptible to plasma esterase activity, inviting their rapid deactivation. Thus, it is important to characterize the rate of compound metabolism in isolated rat or monkey plasma. As a preliminary predictor of oral stability, this assay will also be done in buffers at pH 2 (to emulate the stomach) and pH 7.4 (physiological pH). Compounds (10 mM in DMSO) are diluted in plasma, acetonitrile or buffer to a concentration of 200 μM and incubated in a 37° shaking water bath for 2 hours. Samples are taken periodically, diluted 1:4 with acetonitrile and centrifuged to precipitate protein. The resulting supernatant is analyzed by HPLC to predict expected in vivo plasma half-lives.
# hCB2 receptor = hCB2 receptor (Homo sapiens (Human), UniProt P34972); experiment: hCB2 competition-equilibrium binding with [3H]CP-55,940, membranes of HEK293 cells expressing hCB2
# Protocol: (§1) HEK293 cells expressing hCB1 or hCB2 or mCB2 receptor are used for membrane preparations according to Abadji et al. The resulting pellet is resuspended in 10 mM Tris-chloride, pH 7.4, with 5 mM MgCl2 and 2 mM EDTA (TME), rapidly frozen in liquid nitrogen and stored at −80° C. for no longer than two months. Protein content is assayed by using the Bio-Rad protein assay according to the manufacturer's protocol.
# (§2) All the cannabinoids discussed in this invention are tested for their ability to bind to CB1 and CB2 receptors using membranes from rat brain or HEK293 cells expressing either mCB2 or hCB2, respectively via competition-equilibrium binding using [^3H]CP-55,940. Results are analyzed using nonlinear regression to determine ligand IC50 (Prism by GraphPad Software, Inc.), and Ki values are calculated from the IC50. IC50 and Ki values are determined from at least three independent experiments.
# CB1 receptor = CB1 receptor (Rattus norvegicus (Rat), UniProt P20272); experiment: rCB1 competition-equilibrium binding with [3H]CP-55,940, rat brain membranes
# Protocol: Frozen rat brains (CB1 source) are obtained from Pel-Freeze Biologicals (Rogers, Ak.) and stored at −80° C. until use. Membranes are prepared according to the method described by Dodd et al. and used in our laboratory as reported.
# as §2
# mCB2 receptor = mCB2 receptor (Mus musculus (Mouse), UniProt P47936); experiment: mCB2 competition-equilibrium binding with [3H]CP-55,940, membranes of HEK293 cells expressing mCB2
# Protocol: as §1, §2
# [2] = rat brain membranes, [3H]CP-55,940, read-out: rCB1 Ki
# [3] = HEK293 cells expressing mCB2, [3H]CP-55,940, read-out: mCB2 Ki
# [4] = HEK293 cells expressing hCB2, [3H]CP-55,940, read-out: hCB2 Ki
SMILES,half-life at 200 μM [1] [min],Ki (hCB2 receptor) [nM],Ki (CB1 receptor; [2]) [nM],Ki (mCB2 receptor; [3]) [nM],t 1/2 [1] [min],Ki (hCB2 receptor; [4]) [nM],Ki (mCB2 receptor) [nM],Ki (CB1 receptor) [nM]
"CC1=CCC2[C@@H](C1)c1c(O)cc(C(C)(C)C(=O)OCCCCC#N)cc1OC2(C)C (stereo in doubt) [Compound 1.3, 4-cyanobutyl-2-((6aS, 10aR)-6a, 7, 10, 10a-tetrahydro-1-hydroxy-6,6,9-trimethyl-6H-benzo[c]chromen-3-yl)-2-methylpropanoate]",40,0.8,0.7,,,,,
"CC1=CC[C@H]2[C@@H](C1)c1c(O)cc(C(C)(C)C(=O)OCCCCBr)cc1OC2(C)C [Compound 1.2, 4-bromobutyl-2-((6aS,10aR)-6a,7,10,10a-tetrahydro-1-hydroxy-6,6,9-trimethyl-6H-benzochromen-3-yl)-2-methylpropanoate]",,,1.2,0.6,15,0.8,,
"CC1=CC[C@@H]2[C@@H](C1)c1c(O)cc(C(C)(C)C(=O)OCCCCn3ccnc3)cc1OC2(C)C [Compound 1.6, 4-(1H-imidazol-1-yl)butyl 2-((6aR,10aR)-6a,7,10,10a-tetrahydro-1-hydroxy-6,6,9-trimethyl-6H-benzo[c]chromen-3-yl)-2-methylpropanoate]",120,,29.1,11.6,,8.7,,
"CC1=CC[C@@H]2[C@@H](C1)c1c(O)cc(C(C)(C)C(=O)OCCCn3ccnc3)cc1OC2(C)C [Compound 1.10, 3-(1H-imidazol-1-yl)propyl-2-((6aR,10aR)-6a,7,10,10a-tetrahydro-1-hydroxy-6,6,9-trimethyl-6H-benzo[c]chromen-3-yl)-2-methylpropanoate]",240,,3.4,2,,1.2,,
"CCCCOC(=O)C(C)c1cc(O)c2c(c1)OC(C)(C)[C@@H]1CC=C(C)C[C@@H]21 (stereo partly drawn) [Compound 1.12, Butyl 2-((6aR,10aR)-1-hydroxy-6,6,9-trimethyl-6a,7,10,10a-tetrahydro-6H-benzo[c]chromen-3-yl)propanoate]",3,,0.7,1.2,,1,,
"CCCCOC(=O)[C@H](C)c1cc(O)c2c(c1)OC(C)(C)[C@@H]1CC=C(C)C[C@@H]21 [Compound 1.14, (R)-butyl 2-((6aR,10aR)-1-hydroxy-6,6,9-trimethyl-6a,7,10,10a-tetrahydro-6H-benzo[c]chromen-3-yl)propanoate]",7,,0.9,1.4,,1.4,,
"CCCCOC(=O)[C@@H](C)c1cc(O)c2c(c1)OC(C)(C)[C@@H]1CC=C(C)C[C@@H]21 [Compound 1.16, (S)-butyl 2-((6aR,10aR)-1-hydroxy-6,6,9-trimethyl-6a,7,10,10a-tetrahydro-6H-benzo[c]chromen-3-yl)propanoate]",6,,2.4,1.3,,1.5,,
"CC1=CC[C@@H]2[C@@H](C1)c1c(O)cc(C3(C(=O)OCCCCBr)CCC3)cc1OC2(C)C [Compound 1.18, 4-bromobutyl 1-((6aR,10aR)-1-hydroxy-6,6,9-trimethyl-6a,7,10,10a-tetrahydro-6H-benzo[c]chromen-3-yl)cyclobutanecarboxylate]",50,,0.3,3.7,,0.7,,
"CC1=CC[C@@H]2[C@@H](C1)c1c(O)cc(C3(C(=O)OCCCCC#N)CCC3)cc1OC2(C)C [Compound 1.19, 4-cyanobutyl 1-((6aR,10aR)-1-hydroxy-6,6,9-trimethyl-6a,7,10,10a-tetrahydro-6H-benzo[c]chromen-3-yl)cyclo butanecarboxylate]",107,,0.9,1.5,,1.8,,
"CCCCOC(=O)C1(c2cc(O)c3c(c2)OC(C)(C)[C@@H]2CC=C(C)C[C@@H]32)CCC1 [Compound 1.20, butyl 1-((6aR,10aR)-1-hydroxy-6,6,9-trimethyl-6a,7,10,10a-tetrahydro-6H-benzo[c]chromen-3-yl)cyclobutane carboxylate]",40,,0.7,0.7,,0.4,,
"CC1=CC[C@@H]2[C@@H](C1)c1c(O)cc(C(C)(C)C(=O)OCCCCN3CCOCC3)cc1OC2(C)C [Compound 1.24, 4-morpholinobutyl 2-((6aR,10aR)-1-hydroxy-6,6,9-trimethyl-6a,7,10,10a-tetrahydro-6H-benzo[c]chromen-3-yl)-2-methylpropanoate]",68,,33.8,71.8,,39.9,,
"CC1=CC[C@@H]2[C@@H](C1)c1c(O)cc(C(C)(C)C(=O)OCCCN3CCOCC3)cc1OC2(C)C [Compound 1.25, 3-morpholinopropyl 2-((6aR,10aR)-1-hydroxy-6,6,9-trimethyl-6a,7,10,10a-tetrahydro-6H-benzo[c]chromen-3-yl)-2-methylpropanoate]",200,8.7,,,,,10.4,15.2
"CC(C)(C(=O)O)c1cc(O)c2c(c1)OC(C)(C)[C@@H]1CCC(=O)C[C@@H]21 [Compound 3.3, 2-((6aR,10aR)-6a,7,8,9,10,10a-hexahydro-1-hydroxy-6,6-dimethyl-9-oxo-6H-benzo[c]chromen-3-yl)-2-methylpropanoic Acid]",,,> 10000,> 10000,,> 10000,,
"CCCCOC(=O)C(C)(C)c1cc(O)c2c(c1)OC(C)(C)[C@@H]1CCC(=O)C[C@@H]21 [Compound 3.4, Butyl-2-((6aR,10aR)-6a,7,8,9,10,10a-hexahydro-1-hydroxy-6,6-dimethyl-9-oxo-6H-benzo[c]chromen-3-yl)-2-methylpropanoate]",,,2.2,7.2,,6.2,,
"CC(C)(C(=O)O)c1cc(O)c2c(c1)OC(C)(C)[C@@H]1CC[C@@H](O)C[C@@H]21 [Compound 3.5, 2-((6aR,9R,10aR)-6a,7,8,9,10,10a-hexahydro-1,9-dihydroxy-6,6-dimethyl-6H-benzo[c]chromen-3-yl)-2-methylpropanoic Acid]",,,> 10000,> 10000,,> 10000,,
"CC(C)(C(=O)O)c1cc(O)c2c(c1)OC(C)(C)[C@@H]1CC[C@H](O)C[C@@H]21 [Compound 3.7, 2-((6aR,9S,10aR)-6a,7,8,9,10,10a-hexahydro-1,9-dihydroxy-6,6-dimethyl-6H-benzo[c]chromen-3-yl)-2-methylpropanoic Acid]",,,> 10000,> 10000,,> 10000,,
"CCCCOC(=O)C(C)(C)c1cc(O)c2c(c1)OC(C)(C)[C@@H]1CC[C@@H](CO)C[C@H]21 [Compound 3.9, Butyl 2-((6aR,9R,10aS)-1-hydroxy-9-(hydroxymethyl)-6,6-dimethyl-6a,7,8,9,10,10a-hexahydro-6H-benzo[c]chromen-3-yl)-2-methylpropanoate]",,,2.4,4.3,,6.5,,
"CCCCCCC(C)(C)c1cc(O)c2c(c1)OC(C)(C)[C@@H]1CCC(=O)OC[C@@H]21 [Compound 3.10, (5aR,11bR)-11-hydroxy-6,6-dimethyl-9-(2-methyloctan-2-yl)-4,5,5a,6-tetrahydro-1H-oxepino[4,3-c]chromen-3(11bH)-one]",15,,,,,,,
"CCOC(=O)C(C)(C)c1cc(OC)c(-c2cccc(C#N)c2)c(OC)c1 [Compound 4.1, Ethyl 2-(3′-cyano-2,6-dimethoxybiphenyl-4-yl)-2-methylpropanoate]",,,> 1000,> 1000,,> 1000,,
"CCOC(=O)C(C)(C)c1cc(OC)c(-c2cc(C)cc(C)c2)c(OC)c1 [Compound 4.3, Ethyl 2-(2,6-dimethoxy-3′,5′-dimethylbiphenyl-4-yl)-2-methylpropanoate]",,,1000,1000,,1000,,
"CCOC(=O)C(C)(C)c1cc(O)c(-c2cc(C)cc(C)c2)c(O)c1 [Compound 4.4, Ethyl 2-(2,6-dihydroxy-3′,5′-dimethylbiphenyl-4-yl)-2-methylpropanoate]",,,941,36,,48.8,,
"CCOC(=O)C(C)(C)c1cc(O)c(-c2cc(C)cc(C)c2)c(OC)c1 [Compound 4.5, Ethyl 2-(2-hydroxy-6-methoxy-3′,5′-dimethylbiphenyl-4-yl)-2-methylpropanoate]",,,1000,108,,375,,
"CCOC(=O)C(C)(C)c1cc(OC)c(-c2cc(Cl)cc(Cl)c2)c(OC)c1 [Compound 4.6, Ethyl 2-(3′,5′-dichloro-2,6-dimethoxybiphenyl-4-yl)-2-methylpropanoate]",,,1000,1000,,1000,,
